# Where “and” joins values, the source holds several entries; their conditions need not be identical. Identical values can stand only once. Like-named read-outs stand apart in the source and are kept apart here.
# Key:
# [1] = in vitro; assay type: cell-based; settings: African green monkey
# [2] = Mouse liver microsomal stability; assay type: in vitro ADME; settings: pH 7.4
# [3] = tested on: M. tuberculosis; experiment: M. tuberculosis MBC assay; assay type: cell-based; settings: Mycobacterium tuberculosis
# [4] = tested on: M. tuberculosis; experiment: M. tuberculosis killing kinetics; assay type: cell-based, Mycobacterium tuberculosis; settings: for reduction in CFUs, killing kinetics: 103 MIC of compound, over 7 days, followed by re-growth; for cidality in vitro: H37Rv strain; for killing in combination with INH: each at 10× MIC
# [5] = tested on: M. tuberculosis mc^26206 within J774.1 cells; experiment: microbe, parasite or virus in culture; assay type: cell-based; settings: Mycobacterium tuberculosis, J774.1, read-out: IC50, intracellular growth of M. tuberculosis mc^26206 within J774.1 cells
# [6] = assay type: in vitro ADME; settings: mouse, 5 µM
# [7] = assay type: in vitro ADME; settings: human, 5 µM
# [8] = tested on: CYP1A2, CYP2C9, CYP2C19, CYP2D6, CYP3A4 (one value for the profile of isoforms; except 2C19 for compound 10); experiment: in vitro; assay type: in vitro ADME; settings: human, pH 7.4
# [9] = tested on: M. tuberculosis H37Rv; experiment: Mouse model of acute M. tuberculosis infection; assay type: in vivo, BALB/c mice; settings: for increase of CFU in the lungs versus start of treatment: 100 mg/kg po qd; for bacterial load in the spleen: po qd
# [10] = tested on: M. tuberculosis H37Rv; experiment: M. tuberculosis MIC assay; settings: for MIC H37Rv: 90% inhibition of bacterial growth, Alamar blue
# [11] = physchem; assay type: physicochemical; settings: pH 7.4, aqueous buffer, kinetic from dmso stock
# [12] = Mouse pharmacokinetic profiling; assay type: in vivo, CD-1 mice
# [13] = tested on: M. tuberculosis H37Rv; settings: cited from earlier work
# [14] = tested on: M. tuberculosis H37Rv; settings: acute model, 100 mg/kg qd po, alone; ref Kumar et al., 2018; cited from earlier work
# [15] = tested on: Vero cells; settings: cited from earlier work
# [16] = mouse, microsomes; cited from earlier work
# [17] = pH 7.4; cited from earlier work
# [18] = tested on: M. tuberculosis; experiment: Mouse model of chronic M. tuberculosis infection; assay type: in vivo, BALB/c mice; settings: for reduction in CFUs, controls: 10 or 20 mg/kg qd po
# [19] = Dog liver microsomal stability; assay type: in vitro ADME; settings: pH 7.4
# [20] = tested on: Enterococcus faecium; experiment: MIC versus Enterococcus faecium; assay type: cell-based
# [21] = tested on: Staphylococcus aureus; experiment: MIC versus Staphylococcus aureus; assay type: cell-based
# [22] = tested on: Klebsiella pneumoniae; experiment: MIC versus Klebsiella pneumoniae; assay type: cell-based
# [23] = tested on: Pseudomonas aeruginosa; experiment: MIC versus Pseudomonas aeruginosa; assay type: cell-based
# [24] = tested on: Enterobacter cloacae; experiment: MIC versus Enterobacter cloacae; assay type: cell-based
# [25] = target: hERG (Homo sapiens, UniProt Q12809); experiment: hERG inhibition; assay type: biochemical
# Sequence of hERG (Q12809 whole entry): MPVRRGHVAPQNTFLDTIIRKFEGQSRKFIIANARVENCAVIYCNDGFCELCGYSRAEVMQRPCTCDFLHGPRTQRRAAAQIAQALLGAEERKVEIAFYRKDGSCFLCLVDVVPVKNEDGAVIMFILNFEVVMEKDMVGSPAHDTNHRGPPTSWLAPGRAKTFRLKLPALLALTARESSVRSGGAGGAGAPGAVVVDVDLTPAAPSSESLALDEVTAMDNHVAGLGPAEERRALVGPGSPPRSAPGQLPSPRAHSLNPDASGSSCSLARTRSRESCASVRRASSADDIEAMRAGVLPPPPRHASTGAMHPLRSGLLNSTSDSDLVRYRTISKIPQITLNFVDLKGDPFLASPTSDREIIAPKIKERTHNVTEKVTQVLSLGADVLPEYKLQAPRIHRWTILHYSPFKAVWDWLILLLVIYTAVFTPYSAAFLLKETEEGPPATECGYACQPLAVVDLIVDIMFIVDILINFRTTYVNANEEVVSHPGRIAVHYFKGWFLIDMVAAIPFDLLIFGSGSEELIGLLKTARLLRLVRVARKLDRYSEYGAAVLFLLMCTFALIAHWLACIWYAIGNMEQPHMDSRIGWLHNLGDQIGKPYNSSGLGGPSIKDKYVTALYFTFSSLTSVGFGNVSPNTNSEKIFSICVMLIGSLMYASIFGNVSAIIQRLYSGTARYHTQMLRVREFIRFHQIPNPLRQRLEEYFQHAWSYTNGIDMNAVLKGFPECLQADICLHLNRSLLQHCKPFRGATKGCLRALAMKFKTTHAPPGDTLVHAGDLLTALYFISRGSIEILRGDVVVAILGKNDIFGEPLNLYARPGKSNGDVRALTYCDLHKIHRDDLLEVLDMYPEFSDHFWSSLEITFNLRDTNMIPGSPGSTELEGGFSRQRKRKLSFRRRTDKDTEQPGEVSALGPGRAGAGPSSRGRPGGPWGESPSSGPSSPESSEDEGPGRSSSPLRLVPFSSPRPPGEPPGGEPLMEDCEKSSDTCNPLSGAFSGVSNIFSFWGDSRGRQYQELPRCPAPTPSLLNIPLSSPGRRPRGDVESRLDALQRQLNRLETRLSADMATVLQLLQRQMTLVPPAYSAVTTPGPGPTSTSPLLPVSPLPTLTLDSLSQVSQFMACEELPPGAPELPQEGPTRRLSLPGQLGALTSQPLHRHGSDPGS
# [26] = target: KasA (Mycobacterium tuberculosis, UniProt P9WQD9); experiment: Microscale thermophoresis binding assay
# Sequence of KasA (P9WQD9 whole entry): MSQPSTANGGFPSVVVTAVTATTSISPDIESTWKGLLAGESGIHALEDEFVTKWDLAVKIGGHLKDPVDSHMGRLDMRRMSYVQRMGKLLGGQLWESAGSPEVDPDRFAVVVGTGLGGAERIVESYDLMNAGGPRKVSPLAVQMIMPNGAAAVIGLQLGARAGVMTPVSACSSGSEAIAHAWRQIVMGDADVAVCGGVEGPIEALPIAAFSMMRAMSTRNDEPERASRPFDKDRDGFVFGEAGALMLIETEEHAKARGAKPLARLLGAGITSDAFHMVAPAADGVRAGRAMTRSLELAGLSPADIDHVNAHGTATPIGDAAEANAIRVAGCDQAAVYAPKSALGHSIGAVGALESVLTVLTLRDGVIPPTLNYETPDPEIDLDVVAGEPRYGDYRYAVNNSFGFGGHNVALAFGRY
# [27] = tested on: mycolic acid biosynthesis within M. tuberculosis H37Rv; experiment: Mycolic acid biosynthesis analysis; assay type: cell-based, Mycobacterium tuberculosis
# [28] = target: cytochrome P450 2C19 (Homo sapiens, UniProt P33261); experiment: Human cytochrome P450 2C19 inhibition; assay type: in vitro ADME
# Sequence of cytochrome P450 2C19 (P33261 whole entry): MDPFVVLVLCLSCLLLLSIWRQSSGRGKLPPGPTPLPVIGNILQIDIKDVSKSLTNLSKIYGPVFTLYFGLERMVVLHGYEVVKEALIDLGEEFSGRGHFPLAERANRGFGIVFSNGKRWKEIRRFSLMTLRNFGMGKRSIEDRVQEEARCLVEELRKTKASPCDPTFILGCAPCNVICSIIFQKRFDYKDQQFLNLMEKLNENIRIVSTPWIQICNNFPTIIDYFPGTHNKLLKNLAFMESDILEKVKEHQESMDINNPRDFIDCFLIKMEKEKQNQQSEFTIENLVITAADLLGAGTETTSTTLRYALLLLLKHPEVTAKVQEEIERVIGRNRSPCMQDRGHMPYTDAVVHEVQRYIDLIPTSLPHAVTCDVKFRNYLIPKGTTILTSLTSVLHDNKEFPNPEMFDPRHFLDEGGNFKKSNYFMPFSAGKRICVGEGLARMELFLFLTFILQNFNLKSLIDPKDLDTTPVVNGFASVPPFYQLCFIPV
# [29] = female, CD-1, mouse, in vivo, po
smiles,measurement,setting,value
"CCCCS(=O)(=O)Nc1ccc2[nH]c(C#N)c(C)c2c1 [Compound 9, N-(2-cyano-3-methyl-1H-indol-5-yl)butane-1-sulfonamide]",CC50,[1],170 µM
same,half-life,[2]; mouse liver microsomes,6.51 min
same,MBC,[3],1.4 to 2.7 µM
same,"reduction in CFUs, killing kinetics",[4],> 2 log10
same,cidality in vitro,[4],in vitro bactericidal
same,IC50,[5],0.19 µM
same,plasma stability at 5 h,[6],≥ 80%
same,plasma stability at 5 h,[7],≥ 80%
same,IC50 at 20 min,[8],> 1 µM
same,increase of CFU in the lungs versus start of treatment,[9],about 1 log10 CFU
same,bacterial load in the spleen,[9],did not reduce the bacterial load in the spleen
same,MIC H37Rv,[10],0.78 µM
same,MIC,[10]; H37Rv,780 µM
"CCCCCS(=O)(=O)Nc1ccc2[nH]nc(C)c2c1 [Compound 13, N-(3-methyl-1H-indazol-5-yl)pentane-1-sulfonamide]",CC50,[1],89 µM
same,half-life,[2]; microsomes,3.26 min
same,solubility kinetic at 4 h,[11],476 µM
same,Kp at 5 h,"[12]; female, CD-1, mouse, in vivo",1.3
same,t > MIC,"[12]; female, CD-1, mouse, in vivo",5 h
same,AUC(0-t),[12]; [29],13900 ng·h/mL
same,MIC H37Rv,[10],0.12 µM
CCCCS(=O)(=O)Nc1ccc2cnn(C)c2c1 [DG167],AUC0–5h/MIC,"[12]; mouse, in vivo, po",20
same,"reduction in CFUs, killing kinetics",[4],> 2 log10
same,increase of CFU in the lungs versus start of treatment,[9],about 1 log10 CFU
same,MIC H37Rv,"[13]; footnote a, ref Kumar et al. (2018)",0.39 µM
same,MIC against the wild-type H37Rv strain,"[13]; ref Kumar et al., 2018",390 µM
same,bacterial load of mouse lungs versus start of treatment,[14],did not reduce the bacterial load of mouse lungs
same,CC50,[15],23 µM
same,MLM t1/2,[16],10.1 min
same,Kinetic Aqueous Solubility,[17],324 µM
"Cc1n[nH]c2ccc(NS(=O)(=O)CCCC(F)(F)F)cc12 [Compound 15, 4,4,4-trifluoro-N-(3-methyl-1H-indazol-5-yl)butane-1-sulfonamide]",CC50,[1],> 160 µM
same,Kp at 5 h,"[12]; female, CD-1, mouse, in vivo",0.95
same,t > MIC,"[12]; female, CD-1, mouse, in vivo",5 h
same,AUC(0-t),[12]; [29],28400 ng·h/mL
same,MIC H37Rv,[10],0.25 µM
"Cc1n[nH]c2ccc(NS(=O)(=O)CCCCF)cc12 [JSF-3285, 4-fluoro-N-(3-methyl-1H-indazol-5-yl)butane-1-sulfonamide]",CC50,[1],170 µM
same,half-life,[2]; mouse liver microsomes,28.4 min
same,solubility kinetic at 4 h,[11],175 µM
same,increase in mouse plasma exposure (AUC0–5h) over DG167,"[12]; female, CD-1, mouse, in vivo",30 fold
same,t > MIC,"[12]; female, CD-1, mouse, in vivo",5 h
same,AUC(0-t),[12]; [29],59300 ng·h/mL
same,Kp at 5 h,"[12]; female, CD-1, mouse, lung and plasma, oral",0.75
same,cidality in vitro,[4],cidal to the H37Rv strain
same,killing in combination with INH,[4],culture sterilization
same,IC50,[5],0.046 µM
same,reduction in lung bacterial burden (CFUs) versus start of treatment,"[9]; 100 or 200 mg/kg qd po, 4 weeks of treatment",~ 2 log10
same,improvement of efficacy of INH or RIF regimen on addition,[18]; 200 mg/kg added to 10 mg/kg INH or RIF,~ 1 log10
same,additional reduction of bacterial burden compared to INH- and RIF-only treatment,[18]; 200 mg/kg alone,~ 1 log10 CFUs
same,reduction of bacterial burden in the mouse lungs versus start of treatment,"[18]; 200 mg/kg qd po alone or with 10 mg/kg INH or RIF, 4 weeks",more than 2 log10 CFUs
same,reduction in CFUs in infected lungs,"[18]; 200–5 mg/kg qd and 20 mg/kg qd or bid, 4 weeks of treatment",1.5–2.0 log10
same,half-life,[19]; microsomes,48.2 min
same,intrinsic clearance (Clint) in dog liver microsomes,[19],124 µL/min/mg
same,MIC,[20],> 50 µg/mL
same,MIC,[21],> 50 µg/mL
same,MIC,[22],> 50 µg/mL
same,MIC,[23],> 50 µg/mL
same,MIC,[24],> 50 µg/mL
same,IC50,[25],> 50 µM
same,Kd,[26],0.0707 ± 0.0235 µM
same,mycolic acid biosynthesis,[27],inhibited mycolic acid biosynthesis
same,MIC H37Rv,[10],0.20 µM
"CCCCS(=O)(=O)Nc1ccc2[nH]nc(Cl)c2c1 [Compound 14, N-(3-chloro-1H-indazol-5-yl)butane-1-sulfonamide]",CC50,[1],22 µM
same,half-life,[2]; microsomes,32.1 min
same,solubility kinetic at 4 h,[11],443 µM
same,Kp at 5 h,"[12]; female, CD-1, mouse, in vivo",0.6
same,t > MIC,"[12]; female, CD-1, mouse, in vivo",5 h
same,AUC(0-t),[12]; [29],51700 ng·h/mL
same,MIC H37Rv,[10],0.39 µM
"CO[C@H]1/C=C/O[C@@]2(C)Oc3c(C)c(O)c4c(O)c(c(/C=N/N5CCN(C)CC5)c(O)c4c3C2=O)NC(=O)/C(C)=C\C=C\[C@H](C)[C@H](O)[C@@H](C)[C@@H](O)[C@@H](C)[C@H](OC(C)=O)[C@@H]1C [RIF, rifampicin, reference compound]",IC50,[5],0.3 µM
same,"reduction in CFUs, controls",[18]; 4 weeks,~ 2 log10
"CCCCS(=O)(=O)Nc1ccc2[nH]c(C(=O)OCC)c(C)c2c1 [Compound 5, ethyl 5-(butylsulfonamido)-3-methyl-1H-indole-2-carboxylate]",CC50,[1],> 150 µM
same,half-life,[2]; microsomes,< 0.5 min
same,solubility kinetic at 4 h,[11],0.895 µM
same,MIC H37Rv,[10],0.20 µM
"CCCCS(=O)(=O)Nc1ccc2[nH]c(CN)c(C)c2c1 [Compound 11, N-(2-(aminomethyl)-3-methyl-1H-indol-5-yl)butane-1-sulfonamide]",CC50,[1],170 µM
same,MIC H37Rv,[10],100 µM
"O=S(=O)(CCCCF)Nc1ccc2[nH]nc(Cl)c2c1 [Compound 18, N-(3-chloro-1H-indazol-5-yl)-4-fluorobutane-1-sulfonamide]",CC50,[1],160 µM
same,MIC H37Rv,[10],0.20 µM
"O=S(=O)(CCCC(F)(F)F)Nc1ccc2[nH]nc(Cl)c2c1 [Compound 16, N-(3-chloro-1H-indazol-5-yl)-4,4,4-trifluorobutane-1-sulfonamide]",CC50,[1],> 150 µM
same,Kp at 5 h,"[12]; female, CD-1, mouse, in vivo",1.2
same,t > MIC,"[12]; female, CD-1, mouse, in vivo",5 h
same,AUC(0-t),[12]; [29],22000 ng·h/mL
same,MIC H37Rv,[10],0.20 µM
"CCCCS(=O)(=O)Nc1ccc2[nH]c(C(N)=O)c(C)c2c1 [Compound 8, 5-(butylsulfonamido)-3-methyl-1H-indole-2-carboxamide]",CC50,[1],> 160 µM
same,half-life,[2]; microsomes,6.16 min
same,solubility kinetic at 4 h,[11],45.5 µM
same,MIC H37Rv,[10],3.1 µM
"CCCCCS(=O)(=O)Nc1ccc2[nH]nc(Cl)c2c1 [Compound 17, N-(3-chloro-1H-indazol-5-yl)pentane-1-sulfonamide]",CC50,[1],170 µM
same,Kp at 5 h,"[12]; female, CD-1, mouse, in vivo",1.7
same,t > MIC,"[12]; female, CD-1, mouse, in vivo",5 h
same,AUC(0-t),[12]; [29],34800 ng·h/mL
same,MIC H37Rv,[10],0.39 µM
"CCCCCS(=O)(=O)Nc1ccc2[nH]c(C#N)c(C)c2c1 [Compound 10, N-(2-cyano-3-methyl-1H-indol-5-yl)pentane-1-sulfonamide]",CC50,[1],160 µM
same,half-life,[2]; mouse liver microsomes,4.08 min
same,MBC,[3],0.65 to 1.3 µM
same,cidality in vitro,[4],in vitro bactericidal
same,killing in combination with INH,[4],culture sterilization
same,IC50,[5],0.078 µM
same,plasma stability at 5 h,[6],≥ 80%
same,plasma stability at 5 h,[7],≥ 80%
same,IC50 at 20 min,[8],> 1 µM
same,IC50,[28],0.542 µM
same,bacterial growth in the lungs,[9]; 100 mg/kg,permissive of bacterial growth in the lungs
same,activity in the lungs,[9]; 200-mg/kg dosing regimen,bacteriostatic activity in the lungs
same,bacterial load in the spleen,[9],did not reduce the bacterial load in the spleen
same,MIC H37Rv,[10],0.2 µM and 0.20 µM
"CCCCS(=O)(=O)Nc1ccc2[nH]cc(C)c2c1 [Compound 4, N-(3-methyl-1H-indol-5-yl)butane-1-sulfonamide]",CC50,[1],> 190 µM
same,MIC H37Rv,[10],1.6 µM
"NNC(=O)c1ccncc1 [INH, isoniazid, reference compound]","reduction in CFU, killing kinetics","[4]; 103 MIC, over 4 days, with rapid re-growth",> 3 log10
same,IC50,[5],0.5 µM
same,"reduction in CFUs, controls",[18]; 4 weeks,~ 2 log10

# Source: article PMC7245553 (Cell chemical biology, 2020)
